Experimental data reported in ChEMBL document CHEMBL1201862, “PubChem BioAssay data set” (2004).
The source made the active and inactive calls.

Columns and labels:
Assay type in all cases: functional
[1] = biological target: Dual specificity protein kinase CLK2 (Homo sapiens, UniProt P49760)
[2] = biological target: ALK tyrosine kinase receptor (Homo sapiens, UniProt Q9UM73);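 further: ALK tested as one member of a kinase panel screen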
[3] = biological target: T1, Tyrosine-protein kinase receptor TYRO3 (Homo sapiens, UniProt Q06418);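 further: TYRO3 value obtained as one member of a kinome-wide profiling panel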
T1 sequence (Q06418 whole entry): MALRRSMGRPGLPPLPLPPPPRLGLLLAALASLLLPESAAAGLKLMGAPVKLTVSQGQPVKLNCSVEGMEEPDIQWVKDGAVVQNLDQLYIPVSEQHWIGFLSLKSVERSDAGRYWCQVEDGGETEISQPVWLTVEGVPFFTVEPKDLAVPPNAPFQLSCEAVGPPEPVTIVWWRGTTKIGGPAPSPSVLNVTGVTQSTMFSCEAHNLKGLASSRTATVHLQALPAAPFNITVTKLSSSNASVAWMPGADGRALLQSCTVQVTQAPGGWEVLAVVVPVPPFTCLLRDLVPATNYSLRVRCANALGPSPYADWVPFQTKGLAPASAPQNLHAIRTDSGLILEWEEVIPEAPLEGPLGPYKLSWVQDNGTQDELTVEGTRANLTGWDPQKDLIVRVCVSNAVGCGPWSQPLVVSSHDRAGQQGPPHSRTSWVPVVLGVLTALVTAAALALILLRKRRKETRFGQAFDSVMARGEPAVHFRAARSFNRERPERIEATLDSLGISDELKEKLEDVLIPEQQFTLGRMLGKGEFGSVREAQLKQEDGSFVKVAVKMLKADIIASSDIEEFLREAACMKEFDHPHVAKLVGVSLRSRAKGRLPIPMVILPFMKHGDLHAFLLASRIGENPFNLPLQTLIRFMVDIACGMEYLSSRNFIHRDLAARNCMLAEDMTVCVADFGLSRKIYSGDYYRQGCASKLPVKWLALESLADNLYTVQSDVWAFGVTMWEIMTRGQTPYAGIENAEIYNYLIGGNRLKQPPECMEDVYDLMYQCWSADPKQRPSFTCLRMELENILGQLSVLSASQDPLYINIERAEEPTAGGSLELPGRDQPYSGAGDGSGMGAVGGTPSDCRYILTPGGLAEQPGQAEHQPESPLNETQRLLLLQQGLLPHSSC

[4] = biological target: Tyrosine-protein kinase BTK (Homo sapiens, UniProt Q06187)
LIM domain kinase 1 = LIM domain kinase 1 (Homo sapiens, UniProt P53667); assay: Navigating the Kinome. Panel member name: LIMK1
Sequence of LIM domain kinase 1 (P53667 whole entry, the tested form may be a part): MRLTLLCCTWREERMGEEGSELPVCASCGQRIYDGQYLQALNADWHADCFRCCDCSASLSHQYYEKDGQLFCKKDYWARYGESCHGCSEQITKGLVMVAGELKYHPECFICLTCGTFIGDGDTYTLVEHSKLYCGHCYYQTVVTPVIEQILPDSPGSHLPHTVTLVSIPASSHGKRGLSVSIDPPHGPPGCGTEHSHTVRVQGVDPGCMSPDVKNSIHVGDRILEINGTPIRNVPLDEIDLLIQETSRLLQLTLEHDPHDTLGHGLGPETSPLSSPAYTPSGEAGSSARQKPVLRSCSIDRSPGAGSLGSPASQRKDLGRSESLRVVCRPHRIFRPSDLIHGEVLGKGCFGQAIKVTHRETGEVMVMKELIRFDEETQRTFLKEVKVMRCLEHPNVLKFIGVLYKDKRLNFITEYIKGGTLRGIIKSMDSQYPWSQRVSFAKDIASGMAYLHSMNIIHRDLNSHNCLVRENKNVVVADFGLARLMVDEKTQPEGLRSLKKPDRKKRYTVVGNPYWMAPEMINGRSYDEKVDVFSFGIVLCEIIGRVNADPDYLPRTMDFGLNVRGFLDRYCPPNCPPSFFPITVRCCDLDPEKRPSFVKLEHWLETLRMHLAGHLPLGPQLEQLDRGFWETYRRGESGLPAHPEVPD

[5] = biological target: T2, Serine/threonine-protein kinase Chk1 (Homo sapiens, UniProt O14757);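 further: measured as one member of a kinome-wide kinase profiling panel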
T2 sequence (O14757 whole entry): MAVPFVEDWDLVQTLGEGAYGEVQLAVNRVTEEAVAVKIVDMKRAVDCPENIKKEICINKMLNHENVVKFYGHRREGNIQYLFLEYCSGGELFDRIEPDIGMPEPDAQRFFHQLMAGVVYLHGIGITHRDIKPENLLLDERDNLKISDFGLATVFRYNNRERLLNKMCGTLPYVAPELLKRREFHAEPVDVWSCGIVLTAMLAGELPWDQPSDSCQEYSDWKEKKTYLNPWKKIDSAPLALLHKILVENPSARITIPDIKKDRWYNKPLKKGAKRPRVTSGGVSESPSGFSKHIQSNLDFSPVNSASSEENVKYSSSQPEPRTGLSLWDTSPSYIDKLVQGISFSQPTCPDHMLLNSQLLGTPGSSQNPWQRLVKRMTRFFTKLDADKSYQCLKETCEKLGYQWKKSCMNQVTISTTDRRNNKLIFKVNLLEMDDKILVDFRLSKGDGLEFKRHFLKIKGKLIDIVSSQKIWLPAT

[6] = biological target: T3, cAMP-dependent protein kinase catalytic subunit PRKX (Homo sapiens, UniProt P51817)
T3 sequence (P51817 whole entry): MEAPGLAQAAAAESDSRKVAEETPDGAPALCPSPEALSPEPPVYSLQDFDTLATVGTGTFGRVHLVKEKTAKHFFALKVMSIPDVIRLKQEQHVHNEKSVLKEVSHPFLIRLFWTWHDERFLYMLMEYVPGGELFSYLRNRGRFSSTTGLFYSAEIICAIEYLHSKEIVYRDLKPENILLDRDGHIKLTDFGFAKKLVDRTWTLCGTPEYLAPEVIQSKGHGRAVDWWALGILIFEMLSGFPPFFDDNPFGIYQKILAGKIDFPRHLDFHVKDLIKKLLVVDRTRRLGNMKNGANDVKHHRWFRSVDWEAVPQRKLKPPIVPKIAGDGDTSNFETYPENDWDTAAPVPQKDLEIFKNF

[7] = biological target: Rho-associated protein kinase 1 (Homo sapiens, UniProt Q13464);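 further: measured within a broad kinome-wide panel profiling many kinases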
Sequence of Rho-associated protein kinase 1 (Q13464 whole entry): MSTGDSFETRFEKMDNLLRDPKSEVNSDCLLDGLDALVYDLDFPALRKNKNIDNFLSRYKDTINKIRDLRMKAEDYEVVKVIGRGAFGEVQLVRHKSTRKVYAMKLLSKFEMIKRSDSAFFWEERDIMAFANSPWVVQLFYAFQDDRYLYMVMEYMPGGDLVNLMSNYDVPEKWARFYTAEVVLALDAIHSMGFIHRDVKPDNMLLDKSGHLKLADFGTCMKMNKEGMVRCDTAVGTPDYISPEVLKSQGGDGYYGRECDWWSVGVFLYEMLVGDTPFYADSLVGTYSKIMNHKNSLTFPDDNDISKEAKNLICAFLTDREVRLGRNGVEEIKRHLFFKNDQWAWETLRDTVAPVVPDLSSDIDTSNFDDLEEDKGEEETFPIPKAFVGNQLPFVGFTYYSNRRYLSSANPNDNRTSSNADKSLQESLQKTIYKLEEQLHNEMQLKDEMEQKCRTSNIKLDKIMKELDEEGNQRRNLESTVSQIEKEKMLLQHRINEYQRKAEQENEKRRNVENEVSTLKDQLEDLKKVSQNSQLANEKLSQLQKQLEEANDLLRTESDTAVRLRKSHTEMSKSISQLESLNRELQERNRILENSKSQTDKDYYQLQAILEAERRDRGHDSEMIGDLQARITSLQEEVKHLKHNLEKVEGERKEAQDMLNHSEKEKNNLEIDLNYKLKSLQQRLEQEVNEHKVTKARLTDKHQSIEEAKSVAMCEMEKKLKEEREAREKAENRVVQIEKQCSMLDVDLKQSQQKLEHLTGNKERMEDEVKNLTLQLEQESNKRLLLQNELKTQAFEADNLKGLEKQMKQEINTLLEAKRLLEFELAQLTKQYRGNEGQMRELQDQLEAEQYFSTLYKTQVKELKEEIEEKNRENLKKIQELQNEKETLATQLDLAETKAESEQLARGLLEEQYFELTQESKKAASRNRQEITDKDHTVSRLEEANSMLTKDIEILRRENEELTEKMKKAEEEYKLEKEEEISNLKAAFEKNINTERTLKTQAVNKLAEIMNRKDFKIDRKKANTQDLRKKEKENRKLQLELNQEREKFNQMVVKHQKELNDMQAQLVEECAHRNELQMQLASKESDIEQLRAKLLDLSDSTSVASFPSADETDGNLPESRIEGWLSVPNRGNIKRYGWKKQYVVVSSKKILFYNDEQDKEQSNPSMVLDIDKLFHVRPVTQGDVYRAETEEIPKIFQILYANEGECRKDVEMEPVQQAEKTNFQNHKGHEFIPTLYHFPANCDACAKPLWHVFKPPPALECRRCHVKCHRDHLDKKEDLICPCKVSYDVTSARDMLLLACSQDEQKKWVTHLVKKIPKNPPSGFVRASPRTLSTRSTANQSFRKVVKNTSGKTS

[8] = biological target: BDNF/NT-3 growth factors receptor (Homo sapiens, UniProt Q16620);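 further: NTRK2 measured as one member of a broad kinome-wide kinase profiling panel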
[9] = biological target: Dual specificity mitogen-activated protein kinase kinase 2 (Homo sapiens, UniProt P36507); assay: Navigating the Kinome. Panel member name: MAP2K2
Sequence of Dual specificity mitogen-activated protein kinase kinase 2 (P36507 whole entry): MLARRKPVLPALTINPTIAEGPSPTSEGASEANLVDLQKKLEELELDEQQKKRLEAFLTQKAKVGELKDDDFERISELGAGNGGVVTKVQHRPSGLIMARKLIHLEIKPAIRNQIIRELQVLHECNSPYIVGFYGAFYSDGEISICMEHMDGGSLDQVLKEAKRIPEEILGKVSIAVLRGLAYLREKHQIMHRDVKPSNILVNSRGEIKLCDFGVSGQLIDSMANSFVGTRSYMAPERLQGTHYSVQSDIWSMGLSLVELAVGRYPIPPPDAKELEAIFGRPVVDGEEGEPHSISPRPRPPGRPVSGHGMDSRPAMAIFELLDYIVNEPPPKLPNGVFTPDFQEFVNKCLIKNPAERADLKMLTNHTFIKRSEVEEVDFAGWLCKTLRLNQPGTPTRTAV

[10] = biological target: Calcium/calmodulin-dependent protein kinase type II subunit alpha (Homo sapiens, UniProt Q9UQM7); assay: Navigating the Kinome. Panel member name: CAMK2A
Sequence of Calcium/calmodulin-dependent protein kinase type II subunit alpha (Q9UQM7 whole entry): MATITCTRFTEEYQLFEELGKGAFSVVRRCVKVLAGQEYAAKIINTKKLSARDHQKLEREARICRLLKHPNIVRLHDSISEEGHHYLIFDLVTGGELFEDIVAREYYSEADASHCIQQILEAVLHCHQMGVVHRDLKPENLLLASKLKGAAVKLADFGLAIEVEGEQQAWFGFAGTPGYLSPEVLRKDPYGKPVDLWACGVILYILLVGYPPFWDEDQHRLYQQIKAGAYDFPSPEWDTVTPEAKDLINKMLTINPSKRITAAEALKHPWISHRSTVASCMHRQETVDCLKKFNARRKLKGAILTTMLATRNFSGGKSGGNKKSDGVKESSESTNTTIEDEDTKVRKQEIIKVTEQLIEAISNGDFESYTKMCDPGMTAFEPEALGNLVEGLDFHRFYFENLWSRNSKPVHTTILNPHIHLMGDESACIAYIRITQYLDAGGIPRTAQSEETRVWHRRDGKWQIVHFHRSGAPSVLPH

[11] = biological target: Leukocyte tyrosine kinase receptor (Homo sapiens, UniProt P29376); assay: Navigating the Kinome. Panel member name: LTK

Sequence of ALK tyrosine kinase receptor (Q9UM73 whole entry): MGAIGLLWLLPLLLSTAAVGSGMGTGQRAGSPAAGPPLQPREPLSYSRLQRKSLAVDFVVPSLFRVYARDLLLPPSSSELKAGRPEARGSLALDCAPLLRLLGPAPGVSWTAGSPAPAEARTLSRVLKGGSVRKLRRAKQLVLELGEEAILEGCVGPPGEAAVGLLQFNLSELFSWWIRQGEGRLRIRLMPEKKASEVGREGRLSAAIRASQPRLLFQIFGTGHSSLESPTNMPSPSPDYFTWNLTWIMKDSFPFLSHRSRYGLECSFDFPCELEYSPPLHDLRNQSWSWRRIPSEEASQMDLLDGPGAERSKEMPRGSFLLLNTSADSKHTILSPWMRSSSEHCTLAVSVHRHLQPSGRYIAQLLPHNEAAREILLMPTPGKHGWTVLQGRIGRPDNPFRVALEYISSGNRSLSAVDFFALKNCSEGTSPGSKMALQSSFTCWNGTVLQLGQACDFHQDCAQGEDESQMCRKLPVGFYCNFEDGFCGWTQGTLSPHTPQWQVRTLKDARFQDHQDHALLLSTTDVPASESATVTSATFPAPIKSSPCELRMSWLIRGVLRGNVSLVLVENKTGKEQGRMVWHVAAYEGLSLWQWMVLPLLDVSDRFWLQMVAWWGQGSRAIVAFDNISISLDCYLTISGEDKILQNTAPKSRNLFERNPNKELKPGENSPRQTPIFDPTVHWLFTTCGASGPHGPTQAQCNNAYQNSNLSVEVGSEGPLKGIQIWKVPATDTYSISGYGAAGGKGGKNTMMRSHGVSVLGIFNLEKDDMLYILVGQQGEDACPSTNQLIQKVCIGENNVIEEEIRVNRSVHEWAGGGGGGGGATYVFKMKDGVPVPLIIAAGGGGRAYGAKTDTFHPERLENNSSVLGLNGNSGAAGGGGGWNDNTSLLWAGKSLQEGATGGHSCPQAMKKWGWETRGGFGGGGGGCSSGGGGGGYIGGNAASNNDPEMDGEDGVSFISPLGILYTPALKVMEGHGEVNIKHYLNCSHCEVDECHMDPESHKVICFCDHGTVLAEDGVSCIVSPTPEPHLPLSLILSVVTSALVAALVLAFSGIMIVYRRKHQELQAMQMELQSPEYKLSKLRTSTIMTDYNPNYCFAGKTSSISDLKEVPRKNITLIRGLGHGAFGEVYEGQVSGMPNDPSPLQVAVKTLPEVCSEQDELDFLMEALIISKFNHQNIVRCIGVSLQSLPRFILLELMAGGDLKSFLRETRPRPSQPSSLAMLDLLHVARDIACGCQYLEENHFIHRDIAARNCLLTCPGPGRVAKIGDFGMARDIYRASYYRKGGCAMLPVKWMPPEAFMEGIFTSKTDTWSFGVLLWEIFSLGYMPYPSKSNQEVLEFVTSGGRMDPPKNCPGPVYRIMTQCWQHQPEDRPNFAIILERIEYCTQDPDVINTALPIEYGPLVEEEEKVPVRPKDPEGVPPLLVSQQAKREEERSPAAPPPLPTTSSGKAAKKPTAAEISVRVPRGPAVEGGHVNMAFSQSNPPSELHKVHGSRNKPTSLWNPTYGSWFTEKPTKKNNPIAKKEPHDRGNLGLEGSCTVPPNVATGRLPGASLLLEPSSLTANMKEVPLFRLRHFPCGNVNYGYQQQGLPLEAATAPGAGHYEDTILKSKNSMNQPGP
Sequence of Dual specificity protein kinase CLK2 (P49760 whole entry): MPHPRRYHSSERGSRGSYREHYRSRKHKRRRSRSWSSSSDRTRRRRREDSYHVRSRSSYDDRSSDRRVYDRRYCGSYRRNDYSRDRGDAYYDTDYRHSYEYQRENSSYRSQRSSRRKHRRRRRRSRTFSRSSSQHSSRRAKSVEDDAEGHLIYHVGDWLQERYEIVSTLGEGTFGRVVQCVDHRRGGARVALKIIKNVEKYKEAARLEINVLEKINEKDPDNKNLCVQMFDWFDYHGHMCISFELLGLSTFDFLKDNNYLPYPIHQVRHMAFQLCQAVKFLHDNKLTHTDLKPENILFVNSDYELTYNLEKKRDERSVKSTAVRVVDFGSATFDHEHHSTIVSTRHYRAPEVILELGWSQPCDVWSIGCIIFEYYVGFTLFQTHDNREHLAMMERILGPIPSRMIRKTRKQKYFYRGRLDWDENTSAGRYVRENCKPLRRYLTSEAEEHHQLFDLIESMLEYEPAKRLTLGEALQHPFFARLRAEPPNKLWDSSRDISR

| Ki [1] | Ki [2] | Ki [3] | Ki [4] | Ki (LIM domain kinase 1) | Ki [5] | Ki [6] | Ki [7] | Ki [8] | Ki [9] | Ki [10] | Ki [11] | Structure (SMILES) | pKi [2] |
| --- | --- | --- | --- | --- | --- | --- | --- | --- | --- | --- | --- | --- | --- |
| > 3.98 µM (inactive) | > 6.31 µM (inactive) | 0.316 µM (active) | 3.98 µM (active) | 0.316 µM (active) | 0.316 µM (active) | 1 µM (active) | > 3.98 µM (inactive) | > 3.98 µM (inactive) | 3.16 µM (active) | 3.16 µM (active) | 1 µM (active) | Cc1ccc(C)c(NC(=O)c2cc(-c3ccco3)nc3ccccc23)c1 |  |
| 0.316 µM (active) | 1.58 µM (active) | 1 µM (active) | 0.631 µM (active) | 0.0316 µM (active) | 0.0316 µM (active) | 0.398 µM (active) | 0.501 µM (active) | > 3.98 µM (inactive) | > 3.98 µM (inactive) | > 3.98 µM (inactive) | 0.0251 µM (active) | COc1ccc(C2=NNc3cccc4c(OC)ccc2c34)cc1OC |  |

| Structure (SMILES) | Ki [1] | Ki [2] | Ki [3] | Ki [4] | Ki (LIM domain kinase 1) | Ki [5] | Ki [6] | Ki [7] | Ki [8] | Ki [9] | Ki [10] | Ki [11] | pKi [2] |
| --- | --- | --- | --- | --- | --- | --- | --- | --- | --- | --- | --- | --- | --- |
| CN1CCC(c2c(O)cc(O)c3c(=O)cc(-c4ccccc4Cl)oc23)C(O)C1 (configuration not stated) | > 3.16 µM (inactive) | 0.631 µM (active) | > 2.51 µM (inactive) | > 3.98 µM (inactive) | > 3.16 µM (inactive) | > 6.31 µM (inactive) | > 3.16 µM (inactive) | > 6.31 µM (inactive) | > 3.98 µM (inactive) | > 3.98 µM (inactive) | > 3.98 µM (inactive) | 0.631 µM (active) | 6.2 |
